Structures can show the parent of a compound that is named as a salt. Where two headings read alike, the source gives them in different places.

For one data set, the target named is 5-HT1 receptor. Nature of the data set: Receptor affinity, 3H-5-HT binding. The arrangement: species or system rats. The note with it: 2 nmol/L 3H-5-HT; read-out: Affinity to 5-HT1 receptor: concentration showing 50% inhibition between ligand and receptor. The protocol: (§1) The receptor solution was prepared as follows. After the rats were decapitated, brain was immediately isolated and weighed. Thereafter, brain samples were homogenized in ten times volumes of ice-cold 0.35 mol/L sucrose (pH 7.4) using glass homogenizer with Teflon pestle, which was revolted by motors. The homogenate was centrifuged at 4° C. at 900×g for 10 min and the supernatant was, furthermore, recentrifuged at 4° C. at 22,000×g for 20 min. The precipitate was suspended with addition of 5 mmol/L phosphate buffer solution (pH 7.4). After the suspension was incubated at 37° C. for 30 min, the suspension was recentrifuged at 4° C. at 20,000×g for 20 min. […]
(§2) ^3H-prazocin was used as a ligand. […] In addition, the nonspecific binding was evaluated with binding value of ^3H-prazocin in the presence of 0.1 μmol/L prazocin. […] After 10 ml of scintillation cocktail was put in it, the radioactivity was measured. Affinity of the compounds of the invention to α1 receptor was evaluated from the inhibition rate of binding between α1 receptor and the ligand.
(§3) Affinities of the compounds of the invention to receptors of α2, D1, D2, 5-HT1 and 5-HT2 were respectively determined in the same manner, while used 0.7 nmol/L ^3H-rauwolscine, 1.4 nmol/L ^3H-SCH-23390, 2.0 nmol/L spiperone, 2 nmol/L ^3H-5-HT and 0.5 nmol/L ^3H-ketanserin as each ligands. […]

The next data set concerns the target T1, D1 receptor (Rattus norvegicus, UniProt P18901).
T1 construct: from tissue; host or cells: rat brain membranes
Nature of the data set: Receptor affinity, 3H-SCH-23390 binding. The arrangement: species or system rats. On the procedure: as §1, §2, §3

Data set [1] has as its system tetrabenazine-treated rats. Nature of the data set: Conditioned avoidance task in the shuttle box, tetrabenazine-treated rats. The data set is classed as in vivo, rat. The note with it: for Minimum dose to cause conditioned avoidance reflexes (CARs) in tetrabenazine-treated rats in shuttle box: with tetrabenazine 1 mg/kg s.c. On the procedure:
The method described in Life Sci., 58, 817-827 (1996) was used. The effects on conditioned avoidance reflex (CARs) were analyzed in the shuttle box using male and female rats (weighing 200-220 g) whose learning abilities were reduced by the administration of tetrabenazine. The instrument was constructed, according to the device described in Psychopharmacologia 10, 1-5 (1966). The male and female rats (weighing 200-220 g) were trained to cross the barrier under a conditioned stimulus. (CS, light flash and buzzer sounds). […] In addition, the unconcerned performance to this condition was noted as an intersignal reaction (IR). The rats were trained with 100 trials a day for 5 days. Each trial was carried out with 15-sec intertrial interval. Tetrabenazine saline solution was subcutaneously administered at a dose of 1 mg/kg 1 hr before the test. Then the solution of the compounds of the invention was administered at the doses of 1, 2, 2.5 and 5 mg/kg, s.c., simultaneously with tetrabenazine. The numbers of CARs, EFs and IRs were automatically counted and analyzed using one-way analysis of variance (ANOVA).
Therefore, the compound has no stimulant-like excitement.

For a further data set, the target named is α1 receptor. Briefly: Receptor affinity, 3H-prazocin binding. Further details: species or system rats. Particulars: 0.25 nmol/L 3H-prazocin; read-out: Affinity to α1 receptor: concentration showing 50% inhibition between ligand and receptor. On the procedure:
(§4) The receptor solution was prepared as follows. After the rats were decapitated, brain was immediately isolated and weighed. Thereafter, brain samples were homogenized in ten times volumes of ice-cold 0.35 mol/L sucrose (pH 7.4) using glass homogenizer with Teflon pestle, which was revolted by motors. The homogenate was centrifuged at 4° C. at 900×g for 10 min and the supernatant was, furthermore, recentrifuged at 4° C. at 22,000×g for 20 min. The precipitate was suspended with addition of 5 mmol/L phosphate buffer solution (pH 7.4). After the suspension was incubated at 37° C. for 30 min, the suspension was recentrifuged at 4° C. at 20,000×g for 20 min. The precipitate was resuspended in 10 ml of 5 mmol/L phosphate buffer solution (pH 8.0) to be receptor solution.
^3H-prazocin was used as a ligand. 0.25 nmol/L of ^3H-prazocin, the compounds of the invention and the receptor solution, which were respectively prepared in 5 mmol/L phosphate buffer (pH 8), were put in tube and the mixture was incubated at 25° C. for 90 min. In addition, the nonspecific binding was evaluated with binding value of ^3H-prazocin in the presence of 0.1 μmol/L prazocin. […] After 10 ml of scintillation cocktail was put in it, the radioactivity was measured. Affinity of the compounds of the invention to α1 receptor was evaluated from the inhibition rate of binding between α1 receptor and the ligand.

In data set [2] the test system is primary cultured hepatocyte. Nature of the data set: Toxicity screening using primary cultured hepatocyte (LDH release). It counts as cell-based, rat. The note with it: 24 hr. The protocol:
The hepatocytes was prepared from rat liver using collagenase perfusion method and the cell suspension containing 5×10^5 cells/mL were prepared. After cultivation for 24 hr, the medium was changed to the William's Medium E (GIBCO ERL) containing 10 or 100 μmol/L of the compounds of the invention. After cultivation for 24 hr, the activity of lactatedehydrogenase (LDH) released into the medium was measured.
(In general: LDH leaks from cells whose membrane has failed.)

The target of another data set is α2 receptor. Briefly: Receptor affinity, 3H-rauwolscine binding. Further details: species or system rats. The note with it: 0.7 nmol/L 3H-rauwolscine, read-out: Affinity to α2 receptor: concentration showing 50% inhibition between ligand and receptor. On the procedure: as §4
^3H-prazocin was used as a ligand. 0.25 nmol/L of ^3H-prazocin, the compounds of the invention and the receptor solution, which were respectively prepared in 5 mmol/L phosphate buffer (pH 8), were put in tube and the mixture was incubated at 25° C. for 90 min. In addition, the nonspecific binding was evaluated with binding value of ^3H-prazocin in the presence of 0.1 μmol/L prazocin. The binding assay was carried out as follows. After ^3H-prazocin (binding type: B) bound to receptor, only the binding type of ^3H-prazocin was collected using B/F separator (Brandel, USA) with glass fiber filter (pore size: 0.5 μm Whatman GF/C), and free type of prazocin (free type: F) was removed. Glass-fiber filter, absorbing the binding type of ^3H-prazocin, was washed with ice-cold saline solution and transferred to vial. After 10 ml of scintillation cocktail was put in it, the radioactivity was measured. Affinity of the compounds of the invention to α1 receptor was evaluated from the inhibition rate of binding between α1 receptor and the ligand.
as §3

For the next data set, the target named is T2, 5-HT2 receptor (Rattus norvegicus, UniProt P14842).
T2 construct: from tissue; host or cells: rat brain membranes
Briefly: Receptor affinity, 3H-ketanserin binding. Further details: species or system rats. The protocol: as §1, §2, §3

The target of a further data set is T3, D2 receptor (Rattus norvegicus, UniProt P61169).
T3 construct: from tissue; host or cells: rat brain membranes
Nature of the data set: Receptor affinity, spiperone binding. The arrangement: species or system rats. The protocol:
as §1, §2, §3

The next data set relates to mice. Nature of the data set: Toxicity test in mice in the single administration. It counts as in vivo. Particulars: 100 mg/kg p.o., observed two weeks.

T1 sequence (P18901 whole entry): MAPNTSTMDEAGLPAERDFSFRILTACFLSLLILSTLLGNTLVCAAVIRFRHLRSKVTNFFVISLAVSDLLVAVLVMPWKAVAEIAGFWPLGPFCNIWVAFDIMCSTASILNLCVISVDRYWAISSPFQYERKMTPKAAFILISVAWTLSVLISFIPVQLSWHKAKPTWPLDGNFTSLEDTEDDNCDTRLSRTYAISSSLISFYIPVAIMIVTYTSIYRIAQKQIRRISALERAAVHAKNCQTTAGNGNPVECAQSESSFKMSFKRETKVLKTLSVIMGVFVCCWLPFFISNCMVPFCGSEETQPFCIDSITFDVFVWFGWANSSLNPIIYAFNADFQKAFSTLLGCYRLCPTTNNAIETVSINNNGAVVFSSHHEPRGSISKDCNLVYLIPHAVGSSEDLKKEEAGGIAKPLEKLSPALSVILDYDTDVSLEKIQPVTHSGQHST
T2 sequence (P14842 whole entry): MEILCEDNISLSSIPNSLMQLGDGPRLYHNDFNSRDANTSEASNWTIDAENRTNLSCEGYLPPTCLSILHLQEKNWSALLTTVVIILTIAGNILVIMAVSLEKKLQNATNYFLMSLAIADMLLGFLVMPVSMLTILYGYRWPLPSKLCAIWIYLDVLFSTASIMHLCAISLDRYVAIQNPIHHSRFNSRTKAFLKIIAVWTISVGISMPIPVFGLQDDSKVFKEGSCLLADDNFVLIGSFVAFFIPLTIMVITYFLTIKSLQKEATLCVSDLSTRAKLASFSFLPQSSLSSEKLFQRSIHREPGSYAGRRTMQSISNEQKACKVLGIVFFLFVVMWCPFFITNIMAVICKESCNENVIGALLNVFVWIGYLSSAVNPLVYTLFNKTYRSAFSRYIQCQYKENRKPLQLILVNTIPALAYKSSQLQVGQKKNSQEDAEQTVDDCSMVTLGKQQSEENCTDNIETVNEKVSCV
T3 sequence (P61169 whole entry): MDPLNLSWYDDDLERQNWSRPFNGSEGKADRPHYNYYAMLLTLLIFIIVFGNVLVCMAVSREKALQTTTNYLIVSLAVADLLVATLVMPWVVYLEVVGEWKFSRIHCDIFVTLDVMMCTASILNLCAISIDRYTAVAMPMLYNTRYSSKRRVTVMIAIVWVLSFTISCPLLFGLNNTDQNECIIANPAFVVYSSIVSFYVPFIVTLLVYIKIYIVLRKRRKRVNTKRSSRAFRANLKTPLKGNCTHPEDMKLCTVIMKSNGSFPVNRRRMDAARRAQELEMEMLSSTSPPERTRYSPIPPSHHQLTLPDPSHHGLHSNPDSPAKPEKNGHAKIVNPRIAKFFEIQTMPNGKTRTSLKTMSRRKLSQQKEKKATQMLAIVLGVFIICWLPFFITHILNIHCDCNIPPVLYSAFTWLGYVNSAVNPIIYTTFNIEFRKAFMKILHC

With `CCCNC(CCC)Cc1cc2ccccc2o1.Cl` (racemic) [Racemic compound, (±)-1-(benzofuran-2-yl)-2-propylaminopentane hydrochloride], the IC50 on 5-HT1 receptor is greater than 10 µM; on D1 receptor, greater than 10 µM; on α1 receptor it was greater than 10 µM; at α2 receptor it was 1 µM; on 5-HT2 receptor it was 20 µM; at D2 receptor, greater than 10 µM. Further, the “Minimum dose to cause conditioned avoidance reflexes (CARs) in tetrabenazine-treated rats in shuttle box” value (“Minimum dose” for short) in data set [1] (s.c.) is reported as 1 mg mg/kg. In addition, the “Percent control of LDH release from primary cultured hepatocyte” value (“Percent control of LDH release” for short) stood at 90.28 ± 2.85 Percent control in [2] (10 μmol/L) and 112.10 ± 36.98 Percent control in data set [2] (100 μmol/L).
`CCCNC(CCC)Cc1cc2ccccc2o1.Cl` (single isomer, unassigned; (+)) [(+)-Isomer, (+)-1-(benzofuran-2-yl)-2-propylaminopentane hydrochloride]: the “Minimum dose” value in [1] (s.c.) is listed as 2.5 mg mg/kg. In addition, the entries for the “Percent control of LDH release” value in [2] (10 μmol/L) and in [2] (100 μmol/L) were 124.41 ± 12.54 Percent control and 116.72 ± 6.91 Percent control, respectively. The IC50 is 2.6 µM at α2 receptor (hydrochloride) and greater than 10 µM at 5-HT2 receptor.
Turning to `CCCNC(CCC)Cc1cc2ccccc2o1` (single isomer, unassigned; (-)) [The compound of the invention, (−)-1-(benzofuran-2-yl)-2-propylaminopentane hydrochloride], the IC50 at 5-HT1 receptor is greater than 10 µM; at D1 receptor, greater than 10 µM; on α1 receptor, greater than 10 µM; at α2 receptor (hydrochloride), 3.1 µM; at D2 receptor it was greater than 10 µM. Besides, in the data set with mice, the “Survival of mice after single administration” value is “every three numbers of mice survived”. The “Minimum dose” value in [1] (s.c.) is 5 × 10^−2 mg mg/kg. In addition, the “Reduced learning function of rats administered with tetrabenazine (FIG. 2)” value in data set [1] (shuttle box, s.c.) is given as “significantly improved”. Moreover, the “Intersignal reactions (IRs)” value in data set [1] (shuttle box, tetrabenazine-treated rats) is recorded as “did not significantly change IRs”. In addition, the “Percent control of LDH release” value in data set [2] (10 μmol/L, hydrochloride) was 104.94 ± 4.96 Percent control; in data set [2] (10 μmol/L, listed as the compound of the invention, hydrochloride) it was “not increase”; in data set [2] (100 μmol/L, hydrochloride), 126.42 ± 8.04 Percent control; in data set [2] (100 μmol/L, listed as the compound of the invention, hydrochloride), “slightly increased LDH release”.

The values are drawn from patent publication US6391914B1, “Optically active aminopentane derivatives” (Fujimoto Brothers Co., Ltd., priority 1998, dated 2002).
